Assay results as given in US3983125A, “Thieno-pyridine derivatives, process for their preparation and their applications” (Parcor, priority 1974, dated 1976).

Columns and labels:
[1] = Ovalbumin-induced systemic edema method; type: in vivo; conditions: rat, 100 mg/kg orally, one hour prior to and simultaneously with ovalbumin; for Percent decrease (edematous reaction) after two hours: 2 hours; for Percent decrease (edematous reaction) after three hours: 3 hours
Description: b. Ovalbumin-induced systemic edema method
Rats are administered a simultaneous intraperitoneal injection of 1 ml ovalbumin and 0.5 ml of a 1% aqueous Evans Blue solution. On the other hand, the animals of the treated lot are administered orally 100 mg/kg of the test derivative, one hour prior to and simultaneously with the ovalbumin administration. The determinations are effected after 2 hours and after 3 hours. Thus are determined the average intensity of the edema and the percent decrease of the edematous reaction with respect to the controls.

[2] = Mechanical stimulation method according to Haffner; type: in vivo; conditions: mouse, 100 mg/kg orally
Description: b. Mechanical stimulation method according to Haffner (Deutsch. Wisch., 1959, 55, 731-733)
This method comprises placing a forcipressure forceps at the base of the tail of a mouse and noting the number of self-inflicted bites due to the animal's efforts to remove the forceps. The decrease of the number of bites prior to and after oral administration of the test derivative, at a dosage of 100 mg/kg, provides a measure of the antalgic activity of the derivatives of this invention.

[3] = Acetic acid method (writhing), according to Koster, Anderson and de Beer; type: in vivo; conditions: mice, 100 mg/kg orally, 30 minutes prior to acetic acid i.p.; writhing within following 30 minutes
Description: a. Acetic acid method, according to Koster, Anderson and de Beer (Fed. Proced., 18, 1959, 412, 1, 626).
Intraperitoneal injection of a dilute acetic acid solution produces, in mice, characteristic repeated writhing movements, under the influence of pain.

[4] = Carrageenin-induced localized edema method; type: in vivo; conditions: rat, 100 mg/kg orally per administration; for Percent anti-inflammatory activity after 1 hour: 1 hour after carrageenin; for Percent anti-inflammatory activity after 2 hours: 2 hours after carrageenin; for Percent anti-inflammatory activity after 5 hours: 5 hours after carrageenin
Description: a. Carrageenin-induced localized edema method
A 1% carrageenin solution (0.1 ml) is injected in the metatarsal flexor muscles of the right posterior limb of a rat at time 0 (zero). The animals of the treated lot are additionally given orally 100 mg/kg of the respective test derivatives, one hour prior to and then simultaneously with the injection of the phlogogenic agent, and then one hour and 2.5 hours thereafter. The determinations effected by means of a ROCH micrometer at times 0, 1 hour, 2 hours, 3 hours and 5 hours after carrageenin administration, provide a measure of the percent anti-inflammatory activity, as a function of time.

[5] = Acute toxicity, LD50 oral route; conditions: mouse, in vivo, per kg body weight
Description: By the oral route, the LD50 /24 hrs/kg body weight is in excess of 300 mg with derivatives n°1 and n°2.

[6] = Acute toxicity, LD50 intravenous route, Miller and Tainter method; conditions: mouse, in vivo, mice, per kg body weight

| Structure (SMILES) | Percent decrease (edematous reaction) after two hours [1] | Percent decrease (edematous reaction) after three hours [1] | Average percent antalgic activity after 30 min. [2] | Average percent antalgic activity after 1 hr [2] | Average percent antalgic activity after 2 hrs [2] | Average percent antalgic activity after 3 hrs [2] | Percent antalgic activity [3] | Percent anti-inflammatory activity after 1 hour [4] | Percent anti-inflammatory activity after 2 hours [4] | Percent anti-inflammatory activity after 5 hours [4] | LD50 at 24 h [5] | LD50 at 24 h [6] |
| --- | --- | --- | --- | --- | --- | --- | --- | --- | --- | --- | --- | --- |
| OC1CNCc2ccsc21 (centres unmarked) [Derivative 1, 7-hydroxy-4,5,6,7-tetrahydro-thieno[3,2-c]pyridine] | 54% | 58% | 72% | 68% | 62% | 55% | 63% | 41% | 48% | 53% | > 300 mg/kg | 75 mg/kg |
| OC1CNCc2sccc21 (centres unmarked) [Derivative 2, 4-hydroxy-4,5,6,7-tetrahydro-thieno[2,3-c]pyridine] | 56% | 65% | 76% | 69% | 60% | 54% | 66% | 43% | 54% | 58% | > 300 mg/kg | 68 mg/kg |
| CC1NCC(O)c2ccsc21 (centres unmarked) [Derivative 3, 4-hydroxy-7-methyl-4,5,6,7-tetrahydro-thieno[2,3-c]pyridine] | 45% | 56% | 68% | 62% | 58% | 50% | 55% | 38% | 47% | 56% | – | 300 mg/kg |
| CCC1NCC(O)c2ccsc21 (centres unmarked) [Derivative 4, 7-ethyl-4-hydroxy-4,5,6,7-tetrahydro-thieno[2,3-c]pyridine] | 54% | 62% | 74% | 65% | 60% | 52% | 61% | 43% | 51% | 59% | – | 285 mg/kg |
| CC1NCC(O)c2sccc21 (centres unmarked) [Derivative 5, 7-hydroxy-4-methyl-4,5,6,7-tetrahydro-thieno[3,2-c]pyridine] | 52% | 64% | 76% | 64% | 61% | 52% | 59% | 41% | 55% | 60% | – | 155 mg/kg |
| CCC1NCC(O)c2sccc21 (centres unmarked) [Derivative 6, 4-ethyl-7-hydroxy-4,5,6,7-tetrahydro-thieno[3,2-c]pyridine] | 49% | 64% | 71% | 67% | 63% | 58% | 58% | 39% | 51% | 57% | – | 210 mg/kg |
